Several values for one entry are separate records, joined by “and”; a condition that tells them apart may be missing. Equal values may be shown once. Inconclusive results and toxic doses are left out.

The assay relates to CD2F1 mice, L1210 leukemia ip, survival T/C. The assay can be described thus: NCI In Vivo Anticancer Drug Screen. Data for tumor model L1210 Leukemia (intraperitoneal) in CD2F1 (CDF1) mice. Conditions: higher = longer survival. The method in brief:
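Vehicle-treated tumor-bearing mice served as controls (C) for compound-treated mice (T). Reported figure is T divided by C.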

Where [1] appears, read: endpoint: mean survival time, dose: 100.0 mg/kg/injection, schedule: Q04DX003 (ip), vehicle: saline with Tween-80.
Setting [2] is: endpoint: mean survival time, dose: 200.0 mg/kg/injection, schedule: Q04DX003 (ip), vehicle: saline with Tween-80.
[3] abbreviates: endpoint: mean survival time, dose: 400.0 mg/kg/injection, schedule: Q04DX003 (ip), vehicle: saline with Tween-80.
Setting [4] is: endpoint: mean survival time, dose: 50.0 mg/kg/injection, schedule: Q01DX009 (ip), vehicle: saline.
The mark [5] stands for this setting: endpoint: mean survival time, dose: 25.0 mg/kg/injection, schedule: Q04DX002 (ip), vehicle: saline with Tween-80.
The mark [6] stands for this setting: endpoint: mean survival time, dose: 50.0 mg/kg/injection, schedule: Q04DX002 (ip), vehicle: saline with Tween-80.
Where [7] appears, read: endpoint: mean survival time, dose: 50.0 mg/kg/injection, schedule: Q01DX009 (ip), vehicle: saline with Tween-80.
[8] abbreviates: endpoint: mean survival time, dose: 100.0 mg/kg/injection, schedule: Q04DX003 (ip), vehicle: saline.
[9] abbreviates: endpoint: mean survival time, dose: 200.0 mg/kg/injection, schedule: Q04DX003 (ip), vehicle: saline.
The mark [10] stands for this setting: endpoint: mean survival time, dose: 100.0 mg/kg/injection, schedule: Q01DX001 (ip), vehicle: saline with Tween-80.
Where [11] appears, read: endpoint: mean survival time, dose: 100.0 mg/kg/injection, schedule: Q01DX009 (ip), vehicle: saline with Tween-80.
The mark [12] stands for this setting: endpoint: mean survival time, dose: 200.0 mg/kg/injection, schedule: Q01DX009 (ip), vehicle: saline with Tween-80.
Setting [13] is: endpoint: mean survival time, dose: 400.0 mg/kg/injection, schedule: Q01DX009 (ip), vehicle: saline with Tween-80.

On to `CC(COP(N)(=O)N(CCCl)CCCl)C(C)OCc1ccccc1` (stereo not given), for which the T/C is, setting by setting: (endpoint: mean survival time, dose: 15.62 mg/kg/injection, schedule: Q01DX001 (ip), vehicle: DMSO) 101 % of control; (endpoint: mean survival time, dose: 31.3 mg/kg/injection, schedule: Q01DX001 (ip), vehicle: DMSO) 106 % of control; (endpoint: mean survival time, dose: 62.5 mg/kg/injection, schedule: Q01DX001 (ip), vehicle: DMSO) 101 % of control; (endpoint: mean survival time, dose: 125.0 mg/kg/injection, schedule: Q01DX001 (ip), vehicle: DMSO) 103 % of control; (endpoint: mean survival time, dose: 250.0 mg/kg/injection, schedule: Q01DX001 (ip), vehicle: DMSO) 95 % of control; (endpoint: mean survival time, dose: 500.0 mg/kg/injection, schedule: Q01DX001 (ip), vehicle: DMSO) 93 % of control.
For the compound `Cc1cc(Cl)c(OCC(=O)O)c(Cl)c1`, the T/C is 100 % of control under setting [1] and 100 % of control under setting [2].
`CCC1(CCC#N)CCC(N)=CC1=O` (stereo not given): the T/C under setting [1] was 104 % of control, the T/C under setting [2] was 95 % of control and the T/C under setting [3] was 101 % of control.
As to `NC(=S)c1ncnc2c1ncn2C1OC(CO)C(O)C1O` (stereo not given), the T/C runs as follows: (endpoint: median survival time, dose: 8.75 mg/kg/injection, schedule: Q01DX005 (ip), vehicle: water) 103 % of control; (endpoint: median survival time, dose: 17.5 mg/kg/injection, schedule: Q01DX005 (ip), vehicle: water) 103 % of control and 107 % of control; (endpoint: median survival time, dose: 35.0 mg/kg/injection, schedule: Q01DX005 (ip), vehicle: water) 120 % of control and 111 % of control; (endpoint: median survival time, dose: 70.0 mg/kg/injection, schedule: Q01DX005 (ip), vehicle: water) 122 % of control and 124 % of control.
Regarding `NCCc1cc(O)c(O)cc1O`, the T/C is, setting by setting: under setting [4], 93 % of control; (endpoint: mean survival time, dose: 100.0 mg/kg/injection, schedule: Q01DX009 (ip), vehicle: saline) 104 % of control.
As for `O=C1C2C3CC4C2C(Br)C2C1C3C42` (stereo not given), the T/C reads like this: under setting [5], 104 % of control; under setting [6], 100 % of control.
With `CS(=O)(=O)Nc1ccc(Nc2c3ccccc3nc3cc(Cl)ccc23)cc1`, the T/C was 186 % of control under setting [7]; 160 % of control under setting [8]; 114 % of control (endpoint: mean survival time, dose: 133.0 mg/kg/injection, schedule: Q04DX003 (ip), vehicle: saline with Tween-80); 225 % of control under setting [9].
`COc1ccc(-c2nc(N)nc3c2CN(CCC(=O)O)C3=O)cc1`: the T/C under setting [8] is 102 % of control; the T/C under setting [9] is 100 % of control; the T/C (endpoint: mean survival time, dose: 400.0 mg/kg/injection, schedule: Q04DX003 (ip), vehicle: saline) was 102 % of control.
Consider `CCCCCn1c(C)cc(/C=C\c2ccc3cc(C)ccc3[n+]2C)c1C`, for which the T/C by setting is: (endpoint: mean survival time, dose: 0.62 mg/kg/injection, schedule: Q01DX009 (ip), vehicle: Klucel (hydroxypropylcellulose) (HPC)) 101 % of control; (endpoint: mean survival time, dose: 0.63 mg/kg/injection, schedule: Q01DX009 (ip), vehicle: Klucel (hydroxypropylcellulose) (HPC)) 106 % of control; (endpoint: mean survival time, dose: 1.25 mg/kg/injection, schedule: Q01DX009 (ip), vehicle: Klucel (hydroxypropylcellulose) (HPC)) 114 % of control and 107 % of control.
Consider `C=CS(=O)(=O)c1ccccc1`, for which the T/C is 96 % of control (endpoint: mean survival time, dose: 18.0 mg/kg/injection, schedule: Q01DX009 (ip), vehicle: saline with Tween-80); 93 % of control (endpoint: mean survival time, dose: 36.0 mg/kg/injection, schedule: Q01DX009 (ip), vehicle: saline with Tween-80); 112 % of control (endpoint: mean survival time, dose: 72.0 mg/kg/injection, schedule: Q01DX009 (ip), vehicle: saline with Tween-80).
Regarding `O=C(OCC1CCN2CCCC12)c1ccccc1` (stereo not given), the T/C is 88 % of control (endpoint: mean survival time, dose: 12.5 mg/kg/injection, schedule: Q01DX009 (ip), vehicle: saline); 91 % of control (endpoint: mean survival time, dose: 25.0 mg/kg/injection, schedule: Q01DX009 (ip), vehicle: saline); 91 % of control under setting [4].
Consider `Cc1ccc(C)c(NC(=O)Oc2ccc(F)cc2)c1`, for which the T/C is, setting by setting: under setting [10], 96 % of control; under setting [11], 94 % of control and 97 % of control; (endpoint: mean survival time, dose: 200.0 mg/kg/injection, schedule: Q01DX001 (ip), vehicle: saline with Tween-80) 86 % of control; under setting [12], 101 % of control; (endpoint: mean survival time, dose: 400.0 mg/kg/injection, schedule: Q01DX001 (ip), vehicle: saline with Tween-80) 92 % of control; under setting [13], 93 % of control and 103 % of control.
`Cc1ccc(S(=O)(=O)/C=C(\I)c2ccc([N+](=O)[O-])cc2)cc1`: the T/C is 96 % of control (endpoint: mean survival time, dose: 50.0 mg/kg/injection, schedule: Q04DX003 (ip), vehicle: saline) and 87 % of control under setting [8].
Consider `CCOc1ccccc1OC(=O)Nc1ccc(OC)cc1`, for which the T/C runs as follows: (endpoint: mean survival time, dose: 25.0 mg/kg/injection, schedule: Q01DX009 (ip), vehicle: saline with Tween-80) 97 % of control; under setting [5], 114 % of control; under setting [7], 89 % of control; under setting [6], 104 % of control; under setting [11], 97 % of control; (endpoint: mean survival time, dose: 100.0 mg/kg/injection, schedule: Q04DX002 (ip), vehicle: saline with Tween-80) 94 % of control and 107 % of control. For the setting “endpoint: mean survival time, dose: 400.0 mg/kg/injection, schedule: Q04DX002 (ip), vehicle: saline with Tween-80”, the T/C was 98 % of control.
As to `NC(=S)Nc1ccc(C(=O)O)cc1`, the T/C under setting [11] is 96 % of control; the T/C under setting [1] is 93 % of control; the T/C under setting [12] is 100 % of control; the T/C under setting [2] is 94 % of control; the T/C under setting [13] was 86 % of control; the T/C under setting [3] is 90 % of control.
Regarding `[C-]#[N+]C1CCCCC1.[C-]#[N+]C1CCCCC1.[Pd].[S-]c1ccccc1.[S-]c1ccccc1`, the T/C (endpoint: mean survival time, dose: 3.13 mg/kg/injection, schedule: Q04DX003 (ip), vehicle: distilled water + Tween-80) was 102 % of control; the T/C (endpoint: mean survival time, dose: 6.25 mg/kg/injection, schedule: Q04DX003 (ip), vehicle: distilled water + Tween-80) is 99 % of control; the T/C (endpoint: mean survival time, dose: 12.5 mg/kg/injection, schedule: Q04DX003 (ip), vehicle: distilled water + Tween-80) is 89 % of control; the T/C (endpoint: mean survival time, dose: 25.0 mg/kg/injection, schedule: Q04DX003 (ip), vehicle: distilled water + Tween-80) is 91 % of control; the T/C (endpoint: mean survival time, dose: 50.0 mg/kg/injection, schedule: Q04DX003 (ip), vehicle: distilled water + Tween-80) was 95 % of control; the T/C (endpoint: mean survival time, dose: 100.0 mg/kg/injection, schedule: Q04DX003 (ip), vehicle: distilled water + Tween-80) was 89 % of control. In addition, for the setting “endpoint: mean survival time, dose: 200.0 mg/kg/injection, schedule: Q04DX003 (ip), vehicle: distilled water + Tween-80”, the T/C is 95 % of control.
On to `CC(=O)OC(C)(C)/C=C/C(=O)[C@](C)(O)[C@H]1[C@H](O)C[C@@]2(C)[C@@H]3CC=C4[C@@H](CC[C@H](O)C4(C)C)[C@]3(CO)C(=O)C[C@]12C`, for which the T/C (endpoint: mean survival time, dose: 0.6 mg/kg/injection, schedule: Q01DX009 (ip), vehicle: saline with Tween-80) was 105 % of control; the T/C (endpoint: mean survival time, dose: 0.63 mg/kg/injection, schedule: Q04DX003 (ip), vehicle: saline with Tween-80) is 105 % of control; the T/C (endpoint: mean survival time, dose: 1.2 mg/kg/injection, schedule: Q01DX009 (ip), vehicle: saline with Tween-80) is 105 % of control; the T/C (endpoint: mean survival time, dose: 1.25 mg/kg/injection, schedule: Q04DX003 (ip), vehicle: saline with Tween-80) is 112 % of control; the T/C (endpoint: mean survival time, dose: 2.4 mg/kg/injection, schedule: Q01DX009 (ip), vehicle: saline with Tween-80) was 107 % of control; the T/C (endpoint: mean survival time, dose: 2.5 mg/kg/injection, schedule: Q04DX003 (ip), vehicle: saline with Tween-80) was 114 % of control.
Consider `CCCCC(O)(c1ccccc1)C1CN(C(C)(C)C)C1c1ccccc1` (stereo not given), for which the T/C is 95 % of control (endpoint: mean survival time, dose: 25.0 mg/kg/injection, schedule: Q01DX001 (ip), vehicle: saline with Tween-80); 91 % of control (endpoint: mean survival time, dose: 50.0 mg/kg/injection, schedule: Q01DX001 (ip), vehicle: saline with Tween-80); 86 % of control under setting [10].
Take `O=c1cn[nH]c2ccc(Br)cc12`: the T/C reads like this: (endpoint: mean survival time, dose: 100.0 mg/kg/injection, schedule: Q01DX001 (ip), vehicle: other) 97 % of control; (endpoint: mean survival time, dose: 200.0 mg/kg/injection, schedule: Q01DX001 (ip), vehicle: other) 102 % of control; (endpoint: mean survival time, dose: 400.0 mg/kg/injection, schedule: Q01DX001 (ip), vehicle: other) 91 % of control.

Values taken from PubChem BioAssay AID256 (DTP/NCI, 2004).
